This is an account of results in US20030109460A1, “Medicinal composition containing camptothecin derivative and ph regulating agent” (priority 2000, published 2003).

Where “and” joins values, the source holds several entries; their conditions need not be identical. Equal entries are not always repeated. Where only a bound is given, the exact number is not on record here.

In data set [1] the test system is tumor. Kind of data set: Anti-tumor effect.
A short description of data set [2]: Changes in pH by freeze drying treatment (Example 7). To be noted: for pH Before freeze drying / pH After freeze drying: Compound AS 2 mg, hydrochloric acid; for pH After freeze drying: redissolved to same concentration. The format is physicochemical. The procedure: The pharmaceutical composition containing compound AS methanesulfonate was produced according to the formulation and production scale shown in Table 7 (AS methanesulfonate:maltose=1:19 or 1:38 by weight), and pH of the solution before freeze drying and pH of a solution prepared by dissolving the preparation after freeze drying in water to the same concentration of the solution before freeze drying were measured.

Data set [3] can be described thus: Solubility under strongly acidic condition. The note with it: strongly acidic condition of pH 2.0 or less; salting out. The format is physicochemical. An excerpt:
Generally, camptothecin derivatives have a lactone ring structure, so it is considered that reduction of the drug effect occurs due to ring-opening of the lactone ring in the structure in the alkaline range. In consequence, it is desirable that a pharmaceutical composition containing a camptothecin derivative having a lactone ring or a salt thereof is maintained within acidic range for the purpose of keeping the lactone ring under closed state. […] From two viewpoints of keeping closed state of lactone ring and ensuring proper solubility of the compound, it is desirable that the pharmaceutical composition of the invention is maintained within a weakly acidic condition by formulating a pH-adjusting substance. In this connection, when the pharmaceutical composition is an aqueous preparation, the term “a weakly acidic condition” as used herein means from about pH 3 to 6, and when the pharmaceutical composition is a freeze-dried preparation, it means that pH of an aqueous solution prepared by dissolving in water is from about pH 3 to 6.

The nature of data set [4]: Stability against heat and light. Format: physicochemical. The note with it: severe treatment with heat and light. The method, then: In consequence, overkill approach and the like sterilization methods which accompany heating are not suited for the pharmaceutical composition of the invention. In order to obtain a substantially sterilized condition, it is desirable to employ a method in which the pharmaceutical composition is prepared under aseptic condition, a method in which a filter sterilization-treated solution of the pharmaceutical composition is made into a freeze-dried preparation, and the like. Particularly, the method for making a freeze-dried preparation is desirable. In addition, it is desirable for its preservation to use a container having shading ability. For example, brown vials and the like can be cited.

The nature of data set [5]: Stability of freeze-dried compound AS methanesulfonate, effect of adding amount of maltose (Example 4). To be noted: brown vials. The format is physicochemical.
The nature of data set [6]: Stability of freeze-dried compound AS methanesulfonate, effect of pH, maltose 100 mg/ml (Example 5). The format is physicochemical. The note with it: brown vials.
Experimental: Maltose was added to an aqueous solution (1.0 mg/ml as a concentration converted to free form) of compound AS methanesulfonate to the final concentration of 100 mg/ml (AS methanesulfonate:maltose=1:77 by weight), and pH was adjusted to 3.5, 4.0 or 4.5 by adding hydrochloric acid. […] Brown vials were used as the container.
A short description of data set [7]: Stability of freeze-dried compound AS methanesulfonate, effect of pH, maltose 50 mg/ml (Example 6). To be noted: colorless vials. The format is physicochemical.
Experimental: Maltose was added to an aqueous solution (1.0 mg/ml as a concentration converted to free form) of compound AS methanesulfonate to the final concentration of 50 mg/ml (AS methanesulfonate:maltose=1:38 by weight), and pH was adjusted to 2.5, 3.0, 3.5 or 4.0 by adding hydrochloric acid. […] Colorless vials were used as the container.
The nature of data set [8]: Long term stability of freeze-dried compound AS methanesulfonate (Example 8). Format: physicochemical. The procedure:
A 1.4 kg portion of maltose and 73 g (56 g as converted to free form) of compound AS methanesulfonate was dissolved in 22 L of water (AS methanesulfonate:maltose=1:19 by weight). […] After freeze drying, this was stored under a condition of 5° C. or 25° C. with a relative humidity of 60%, and then dissolved in water to the same concentration of the solution before freeze drying to measure pH. […] Colorless vials were used as the container.

Where [9] appears, read: Production scale 28.0 L, Maltose 50 mg, water total vol. 1 ml.
Where [10] appears, read: Production scale 90.0 L, Maltose 100 mg, water total vol. 2 ml.
The mark [11] stands for this setting: 25° C., 60% R.H., Starting time.

Regarding `CC[C@@]1(O)C(=O)OCc2c1cc1n(c2=O)Cc2c-1nc1cc(F)c(C)c3c1c2[C@H](N)CC3` [compound AR, (1R,9S)-1-amino-9-ethyl-5-fluoro-2,3-dihydro-9-hydroxy-4-methyl-1H,12H-benzo[de]pyrano[3′,4′:6,7]indolizino[1,2-b]quinoline-10,13 (9H,15H)-dione], the anti-tumor effect result in data set [1] is “potent anti-tumor effect”.

For `CC[C@@]1(O)C(=O)OCc2c1cc1n(c2=O)Cc2c-1nc1cc(F)c(C)c3c1c2[C@@H](N)CC3` [compound AS, (1S,9S)-1-amino-9-ethyl-5-fluoro-2,3-dihydro-9-hydroxy-4-methyl-1H,12H-benzo[de]pyrano[3′,4′:6,7]indolizino[1,2-b]quinoline-10,13(9H,15H)-dione], the “pH Before freeze drying” value in data set [2] (setting [9]) was 3.73 and 3.67; in data set [2] (setting [10]) it was 3.85. The “pH After freeze drying” value in data set [2] (setting [9]) was 4.00 and 3.83; in data set [2] (setting [10]), 3.97. Further, in data set [1], the anti-tumor effect entry was “potent anti-tumor effect”. Besides, the “anti-tumor effect relative to compound AR” value in data set [1] (compound AS versus compound AR) is recorded as “about two times higher”.

For the molecule `CC[C@@]1(O)C(=O)OCc2c1cc1n(c2=O)Cc2c-1nc1cc(F)c(C)c3c1c2C(N)CC3` (stereo partly drawn) [compound A, (9S)-1-amino-9-ethyl-5-fluoro-2,3-dihydro-9-hydroxy-4-methyl-1H,12H-benzo[de]pyrano[3′,4′:6,7]indolizino[1,2-b]quinoline-10,13(9H,15H)-dione], the solubility result in data set [3] is given as “considerably reduced”. Besides, the “stability against heat and light” value in data set [4] is “considerably unstable”.

In the case of `CC[C@@]1(O)C(=O)OCc2c1cc1n(c2=O)Cc2c-1nc1cc(F)c(C)c3c1c2[C@@H](N)CC3.CS(=O)(=O)O` [compound AS methanesulfonate, (1S,9S)-1-amino-9-ethyl-5-fluoro-2,3-dihydro-9-hydroxy-4-methyl-1H,12H-benzo[de]pyrano[3′,4′:6,7]indolizino[1,2-b]quinoline-10,13(9H,15H)-dione methanesulfonate], the “Weight % of total analogous matter” value turned out to be 0.52 Weight % in data set [5] (Maltose 50 mg/ml, 40° C., 75% R.H., 1 month, pH 4.0); 0.80 Weight % in data set [5] (Maltose 50 mg/ml, 50° C., 1 month, pH 4.0); 0.34 Weight % in data set [5] (Maltose 50 mg/ml, Starting time, pH 4.0 hydrochloric acid); 1.36 Weight % in data set [5] (Maltose 100 mg/ml, 40° C., 75% R.H., 1 month, pH 4.0); 2.24 Weight % in data set [5] (Maltose 100 mg/ml, 50° C., 1 month, pH 4.0); 0.50 Weight % in data set [5] (Maltose 100 mg/ml, Starting time, pH 4.0). The “Weight % of total analogous matter” value in data set [6] (pH 3.5, 40° C., 75% R.H., 1 month) worked out at 3.12 Weight %; in data set [6] (pH 3.5, 60° C., 2 weeks), 7.52 Weight %; in data set [6] (pH 3.5, Starting time), 0.72 Weight %; in data set [6] (pH 4.0, 40° C., 75% R.H., 1 month), 1.36 Weight %; in data set [6] (pH 4.0, 60° C., 2 weeks), 3.13 Weight %; in data set [6] (pH 4.0, Starting time) it was 0.50 Weight %. The “Weight % of total analogous matter” value is reported as 0.51 Weight % in data set [6] (pH 4.5, 40° C., 75% R.H., 1 month); 0.75 Weight % in data set [6] (pH 4.5, 60° C., 2 weeks); 0.40 Weight % in data set [6] (pH 4.5, Starting time); 21.43 Weight % in data set [7] (pH 2.5, 60° C., 2 weeks); 1.05 Weight % in data set [7] (pH 2.5, Starting time); 10.64 Weight % in data set [7] (pH 3.0, 60° C., 2 weeks). For the same molecule, the “Weight % of total analogous matter” value is reported as 0.42 Weight % in data set [7] (pH 3.0, Starting time); 5.07 Weight % in data set [7] (pH 3.5, 60° C., 2 weeks); 0.27 Weight % in data set [7] (pH 3.5, Starting time); 1.83 Weight % in data set [7] (pH 4.0, 60° C., 2 weeks); 0.23 Weight % in data set [7] (pH 4.0, Starting time). The “change of pH by freeze drying treatment” value in data set [2] (maltose 1:19 or 1:38 by weight) is “hardly changes”. For the same molecule, the “Total analogous matter weight %” value was found to be 0.32 weight % in data set [8] (5° C., 1 month); 0.33 weight % in data set [8] (5° C., 3 months); 0.33 weight % in data set [8] (5° C., 6 months); 0.33 weight % in data set [8] (5° C., 9 months); 0.33 weight % in data set [8] (5° C., 12 months); 0.33 weight % in data set [8] (5° C., 24 months). The “Total analogous matter weight %” value in data set [8] (5° C., 30 months) stood at 0.33 weight %; in data set [8] (5° C., 37 months), 0.32 weight %; in data set [8] (5° C., Starting time, colorless vials), 0.33 weight %; in data set [8] (25° C., 60% R.H., 1 month) it was 0.33 weight %; in data set [8] (25° C., 60% R.H., 3 months), 0.33 weight %; in data set [8] (25° C., 60% R.H., 6 months), 0.33 weight %. The “Total analogous matter weight %” value in data set [8] (25° C., 60% R.H., 9 months) is reported as 0.33 weight %; in data set [8] (25° C., 60% R.H., 12 months) it was 0.33 weight %; in data set [8] (25° C., 60% R.H., 24 months), 0.33 weight %; in data set [8] (25° C., 60% R.H., 37 months) it was 0.33 weight %; in data set [8] (setting [11]), 0.33 weight %. In addition, the pH in data set [8] (5° C., 1 month) is 3.9; in data set [8] (5° C., 3 months) it was 3.9; in data set [8] (5° C., 6 months), 3.7; in data set [8] (5° C., 9 months) it was 4.0; in data set [8] (5° C., 12 months), 3.9; in data set [8] (5° C., 24 months) it was 4.1. The pH in data set [8] (5° C., 30 months) is recorded as 4.6; in data set [8] (5° C., 37 months), 3.7; in data set [8] (5° C., Starting time, redissolved in water), 3.8; in data set [8] (25° C., 60% R.H., 1 month), 3.9; in data set [8] (25° C., 60% R.H., 3 months), 3.9; in data set [8] (25° C., 60% R.H., 6 months) it was 3.7. The pH in data set [8] (25° C., 60% R.H., 9 months) came to 4.0; in data set [8] (25° C., 60% R.H., 12 months) it was 4.0; in data set [8] (25° C., 60% R.H., 24 months) it was 4.3; in data set [8] (25° C., 60% R.H., 37 months), 3.9; in data set [8] (setting [11]) it was 3.8. Also, in data set [8] (until 37 months), the “formation of the total analogous matter as weight %” value is listed as at most 0.33%.
